PubChem BioAssay AID602238 (National Center for Advancing Translational Sciences (NCATS), 2012)

Test system: mouse liver microsomes, percent remaining, LC-MS/MS
Test: qHTS for Activators of Human alpha-Glucosidase as a Potential Chaperone Treatment of Pompe Disease: Metabolic Stability
Conditions: at 5 µM; hits give high values
Source text: Alpha-glucosidase is responsible for hydrolysis of terminal, non-reducing 1,4-linked alpha-D-glucose residues with release of alpha-D-glucose. It is a lysosomal hydrolase that is required for the degradation of a small percentage (1-3%) of cellular glycogen in human. Deficiency of this enzyme results in glycogen-storage disease type II (GSDII), also referred to as Pompe disease, an autosomal recessive disorder. Structurally normal glycogen is accumulated in lysosomes and cytoplasm in affected patients, primarily in muscle tissues. Excessive glycogen storage within lysosomes may interrupt normal functioning of other organelles and leads to cellular injury. In turn, this leads to enlargement and dysfunction of the entire organ involved (eg, cardiomyopathy and muscle weakness). It has reported that the improper folding and trafficking of alpha-glucosidase resulting from the genetic mutations may account for a significant number of Pompe patients. […] We optimized this alpha-glucosidase assay in 1536-well plate format for identifying the novel small molecule inhibitors with the structures other than the sugar analogs in order to develop the new pharmacological chaperones. The probe and other compounds were characterized in this metabolic stability assay to asses their properties. NIH Chemical Genomics Center [NCGC] NIH Molecular Libraries Probe Production Centers Network [MLPCN] MLPCN Grant: MH084841 Assay Submitter (PI): Wei Zheng
5uM of compound is incubated with mouse liver microsome; the reference compounds are verapamil and warfarin. Compounds are incubated and samples are analyzed with LC-MS/MS.

Row | percent remaining [%] | Structure (SMILES)
1 | 4 | CCCN1CNc2c(c(=O)[nH]c(=S)n2CCc2ccc(OC)c(OC)c2)C1
2 | 101 | CCCN1CNc2c(c(=O)[nH]c(=S)n2Cc2ccc(OC)c(OC)c2)C1
3 | 105 | CCCN1CNc2c(c(=O)[nH]c(=S)n2CCc2cccc(Cl)c2Cl)C1
